# System: NCI screening panel tumor cell lines
# Experiment: Growth inhibition (GI50, sulforhodamine B) in NCI tumor cell line panel, correlated with polymorphic genotype
# Format: cell-based, human
# [1] = NOS3 t-786c, ratio of average GI(50) of genotypes, 48 h drug incubation
# Protocol: The method tests a toxic agent over five 10-fold dilutions in cells for 48 hrs in a 5% CO2 atmosphere and 100% humidity. For most agents the highest concentration was 0.1 mM, but for the standard agents the highest well concentration depended on experience with the agent. DNA purified from each cell line was analyzed for SNPs at the alleles of interest. […] Cell suspensions were added to a microtiter plate and incubated for 24 h at 37° C. The drugs were added at concentrations spanning five 10-fold dilutions, and incubated for 48 h. The cells were assayed by staining the cells with sulforhodamine B, and a plate reader was used to read the optical densities. The results are expressed as a GI50 value, which is the drug concentration producing 50% growth inhibition, with correction for the cell count at time zero. […] The drug sensitivities for the polymorphs of each gene of interest were calculated in the following manner. For each drug, the average GI(50) for each polymorphic genotype was calculated, e.g., the GI(50) for the homozygous dominant, heterozygous and homozygous variant genotypes. Then the GI(50)s for all the drugs were analyzed among genotypes by nonparametric Friedman Repeated Measures ANOVA. In this test the GI(50) is only used for ranking among the genotypes for each drug, so errors due to sample size among genotypes are minimized. Statistical analysis of each pair of polymorphic genotypes was done by the Tukey-Kramer Multiple Comparison Test. Analysis of relative sensitivity of the genotypes to an individual drug was by parametric ANOVA. To determine the relative sensitivity of each pair of genotypes, the relative sensitivity to each drug was calculated by dividing the GI(50) of one genotype by the GI(50) of the other. The relative sensitivities for all the drugs were then averaged. For each pair of genotypes, we also calculated the percent of drugs in which one genotype was more sensitive than the other. […]
Compound,"resistance of XRCC1 R399Q homozygous variant genotype versus homozygous dominant genotype (XRCC1 R399Q, single-drug analysis, p=0.045 Bonferroni adjusted multiple comparison test)",survival of NOS3 t-786c homozygous variant genotype relative to heterozygous genotype [1],survival of NOS3 t-786c homozygous variant genotype relative to homozygous dominant genotype [1]
CC[C@]1(O)C[C@@H]2CN(CCc3c([nH]c4ccccc34)[C@@](C(=O)OC)(c3cc4c(cc3OC)N(C)[C@H]3[C@@](O)(C(=O)OC)[C@H](OC(C)=O)[C@]5(CC)C=CCN6CC[C@]43[C@@H]65)C2)C1 [vinblastine],significantly more resistant,,
"Nc1nc2nc[nH]c2c(=S)[nH]1 [thioguanine, Thioguanine]",,35%,68%

# Source: patent US20070207195A1, “Genetic Screening for Polymorphisms in Human Genes that Increase or Decrease Sensitivity to Toxic Agents” (Applied Genetics Incorporated Dermatics, priority 2004, published 2007)
